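Tested at 5 concentrations; 48 h exposure; 96-well plates; endpoints linearly interpolated, else capped at highest concentration. Definition used: TGI = concentration required for complete inhibition of growth.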
Legend:
Experiment in all cases: DTP human tumour cell line panel, 48 h
DLD-1 colon = test system: DLD-1 colon
K-562 leukemia = test system: K-562 leukemia
HOP-18 NSCLC = test system: HOP-18 NSCLC
M19-MEL melanoma = test system: M19-MEL melanoma
SNB-78 CNS = test system: SNB-78 CNS
HCC-2998 colon = test system: HCC-2998 colon
IGROV1 ovarian = test system: IGROV1 ovarian
RXF 393 renal = test system: RXF 393 renal
DMS 114 small cell lung = test system: DMS 114 small cell lung
SR leukemia = test system: SR leukemia

O=C1N[C@@H]2C(=C[C@H](O)[C@@H](O)[C@H]2O)c2cc3c(c(O)c21)OCO3
TGI (DLD-1 colon): 0.0751 µM | TGI (K-562 leukemia): 0.0955 µM | TGI (HOP-18 NSCLC): 0.281 µM | TGI (M19-MEL melanoma): 0.0771 µM | TGI (SNB-78 CNS): 0.399 µM | TGI (HCC-2998 colon): 0.0681 µM | TGI (IGROV1 ovarian): 0.151 µM

CCOC(=O)c1c[nH]c2ccc3c(c2c1=O)S(=O)(=O)CC3 (tested in a mixture with another compound)
TGI (RXF 393 renal): > 100 µM | TGI (DLD-1 colon): > 100 µM | TGI (K-562 leukemia): > 100 µM | TGI (HOP-18 NSCLC): > 100 µM | TGI (M19-MEL melanoma): > 100 µM | TGI (SNB-78 CNS): > 100 µM | TGI (HCC-2998 colon): > 100 µM | TGI (DMS 114 small cell lung): > 100 µM | TGI (IGROV1 ovarian): > 100 µM

CN1CCN(P2(=S)Oc3ccc4ccccc4c3-c3c(ccc4ccccc34)O2)CC1
TGI (RXF 393 renal): > 94.7 µM | TGI (DLD-1 colon): > 100 µM | TGI (K-562 leukemia): > 76.9 µM | TGI (HOP-18 NSCLC): > 100 µM | TGI (M19-MEL melanoma): > 100 µM | TGI (SNB-78 CNS): > 100 µM | TGI (HCC-2998 colon): 41.8 µM | TGI (DMS 114 small cell lung): > 100 µM | TGI (IGROV1 ovarian): > 100 µM

CCCCCCCCCCCC[N+](CCCCCCCCCCCC)=C1SCCS1
TGI (SR leukemia): 15.2 µM | TGI (RXF 393 renal): 14.8 µM | TGI (DLD-1 colon): 21.2 µM | TGI (HOP-18 NSCLC): 30 µM | TGI (M19-MEL melanoma): 8.43 µM | TGI (SNB-78 CNS): 14.6 µM | TGI (HCC-2998 colon): 22.4 µM | TGI (DMS 114 small cell lung): 3.58 µM | TGI (IGROV1 ovarian): 23.4 µM

O=C1CCCC/C1=C\c1ccc(Cl)c(Cl)c1
TGI (DLD-1 colon): 61.6 µM | TGI (K-562 leukemia): 48 µM | TGI (HOP-18 NSCLC): 51.7 µM | TGI (M19-MEL melanoma): 40.3 µM | TGI (SNB-78 CNS): 52.7 µM | TGI (HCC-2998 colon): 42.7 µM | TGI (DMS 114 small cell lung): 41.1 µM | TGI (IGROV1 ovarian): 61.7 µM

O=NN(CCF)C(=O)NC1CCSCC1
TGI (RXF 393 renal): > 100 µM | TGI (DLD-1 colon): > 100 µM | TGI (K-562 leukemia): > 31.6 µM | TGI (HOP-18 NSCLC): > 100 µM | TGI (M19-MEL melanoma): > 100 µM | TGI (SNB-78 CNS): > 100 µM | TGI (HCC-2998 colon): > 100 µM | TGI (DMS 114 small cell lung): > 100 µM | TGI (IGROV1 ovarian): > 100 µM

From PubChem BioAssay (NCI)
